Reference: patent publication US20120115852A1, “HETEROCYCLIC COMPOUNDS AS AUTOTAXIN INHIBITORS” (Merck Patent Gesellschaft Mit Beschrankter Haftung, priority 2009, published 2012)

Target: T1, recombinant autotaxin (Homo sapiens, UniProt Q13822)
T1 construct: made in house; host or cells: Hi5 insect cells (baculovirus)
Test: Autotaxin test (enzyme test), Amplex Red fluorescence with LPC substrate
Assay type: biochemical
Details: autotaxin inhibition (enzyme test); for remaining activity at 10 µM: 10 μM compound, read-out: % Control at 10 μM
In short: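 Activity was inferred from H2O2 made from released choline, detected as Amplex Red/peroxidase fluorescence (485 nm excitation, 612 nm emission, kinetic read). Beforehand, Hi5-expressed autotaxin sat with compound 30 min at 22° C, then hydrolysed 75 μM final LPC for 90 min at 37° C, pH 8 Tris buffer.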

Structure (SMILES)	remaining activity at 10 µM	IC50
CC(C)(C)CC(=O)N1CCN2C(=O)c3cc(-c4ccc(Cl)cc4F)ccc3N(CCC3CCNCC3)C(=O)C2C1 (stereo not shown) [Compound A146]	10%	> 1000 nM
NCCN1CCC[C@H]1C(=O)N1CCN2C(=O)c3cc(-c4ccc(Cl)cc4F)ccc3NC(=O)[C@H]2C1 [Compound A119, (R)-2-[(S)-1-(2-Aminoethyl)pyrrolidine-2-carbonyl]-7-(4-chloro-2-fluorophenyl)-1,3,4,11a-tetrahydro-2H,10H-2,4a,10-triazadibenzo[a,d]cycloheptene-5,11-dione]	45%	> 1000 nM
O=C1Nc2ccc(-c3ccc(Cl)cc3)cc2C(=O)N2CCN(C(=O)C3(c4ccccc4)CCCC3)CC12 (stereo not shown) [Compound A106, 7-(4-Chlorophenyl)-2-(1-phenylcyclopentane-carbonyl)-1,3,4,11a-tetrahydro-2H,10H-2,4a,10-triazadibenzo[a,d]cycloheptene-5,11-dione]	-37%	100 to 1000 nM
O=C1Nc2ccc(-c3ccc(Cl)cc3F)cc2C(=O)N2CCN(C(=O)[C@@H]3CCCN3C3CCCNC3)C[C@H]12 (stereo partly drawn) [Compound A123, (R)-7-(4-Chloro-2-fluorophenyl)-2-((S)-1-piperidin-3-ylpyrrolidine-2-carbonyl)-1,3,4,11a-tetrahydro-2H,10H-2,4a,10-triazadibenzo[a,d]cycloheptene-5,11-dione]	6%	100 to 1000 nM
CN1CCN(C(=O)CN2C(=O)[C@H]3CN(C(=O)[C@@H]4CCCN4C4CCNCC4)CCN3C(=O)c3cc(-c4ccc(Cl)cc4F)ccc32)CC1 [Compound A154]	27%	> 1000 nM
CC(C)[C@H](O)C(=O)N1CCN2C(=O)c3cc(-c4ccc(Cl)cc4)ccc3NC(=O)C2C1 (stereo partly drawn) [Compound A74, 7-(4-Chlorophenyl)-2-((S)-2-hydroxy-3-methyl-butyryl)-1,3,4,11a-tetrahydro-2H,10H-2,4a,10-triaza-dibenzo[a,d]cycloheptene-5,11-dione]	-2%	> 1000 nM
Cn1cncc1C(=O)N1CCN2C(=O)c3cc(-c4ccc(Cl)cc4F)ccc3NC(=O)C2C1 (stereo not shown) [Compound A67, 7-(4-Chloro-2-fluorophenyl)-2-(3-methyl-3H-imidazole-4-carbonyl)-1,3,4,11a-tetrahydro-2H,10H-2,4a,10-triazadibenzo[a,d]cycloheptene-5,11-dione]	19%	> 1000 nM
O=C1Nc2ccc(-c3ccc(Cl)cc3)cc2C(=O)N2CCN(C(=O)Oc3ccccc3)CC12 (stereo not shown) [Compound A167]	26%	> 1000 nM
CC(C)(C)CC(=O)N1CCN2C(=O)c3cc(-c4ccc(Cl)cc4F)ccc3N(CCN3CCOCC3)C(=O)[C@@H]2C1 [Compound A161]	3%	100 to 1000 nM
CC(C)(C)CC(=O)N1CCN2C(=O)c3cc(-c4ccc(Cl)s4)ccc3NC(=O)C2C1 (stereo not shown) [Compound A129, 7-(5-Chlorothiophen-2-yl)-2-(3,3-dimethylbutyryl)-1,3,4,11a-tetrahydro-2H,10H-2,4a,10-triaza-dibenzo[a,d]cycloheptene-5,11-dione]	6%	> 1000 nM
O=C1Nc2ccc(-c3ccccc3F)cc2C(=O)N2CCN(C(=O)c3ccccn3)CC12 (stereo not shown) [Compound A15, 7-(2-Fluorophenyl)-2-(pyridine-2-carbonyl)-1,3,4,11a-tetrahydro-2H,10H-2,4a,10-triaza-dibenzo[a,d]cycloheptene-5,11-dione]	55%	> 1000 nM
O=C([C@@H]1CCCN1C1CCNCC1)N1CCN2C(=O)c3cc(-c4ccc(Cl)cc4F)ccc3N(CCO)C(=O)[C@H]2C1 [Compound A159]	16%	> 1000 nM
CC(C)(C)CC(=O)N1CCN2C(=O)c3cc(-c4ccc(Cl)cc4F)ccc3N(CCO)C(=O)[C@@H]2C1 [Compound A160]	2%	100 to 1000 nM
Nc1nc(C(=O)N2CCN3C(=O)c4cc(-c5ccc(Cl)cc5)ccc4NC(=O)C3C2)cs1 (stereo not shown) [Compound A50, 2-(2-Aminothiazole-4-carbonyl)-7-(4-chlorophenyl)-1,3,4,11a-tetrahydro-2H,10H-2,4a,10-triaza-dibenzo[a,d]cycloheptene-5,11-dione]	80%	
CC(C)(C)[C@H](O)C(=O)N1CCN2Cc3cc(-c4ccc(Cl)cc4)ccc3NC(=O)C2C1 (stereo partly drawn) [Compound 57, 7-(4-Chlorophenyl)-2-((S)-2-hydroxy-3,3-dimethylbutyryl)-1,3,4,5,10,11a-hexahydro-1H-2,4a,10-triazadibenzo[a,d]cyclohepten-11-one]	40%	> 1000 nM
NC(=O)CN1C(=O)[C@H]2CN(C(=O)[C@@H]3CCCN3C3CCNCC3)CCN2C(=O)c2cc(-c3ccc(Cl)cc3F)ccc21 [Compound A155]	10%	100 to 1000 nM
O=C1Nc2ccc(-c3ccc(Cl)cc3)cc2C(=O)N2CCN(C(=O)CC3CCCC3)CC12 (stereo not shown) [Compound A25, 7-(4-Chlorophenyl)-2-(2-cyclopentylacetyl)-1,3,4,11a-tetrahydro-2H,10H-2,4a,10-triaza-dibenzo[a,d]cycloheptene-5,11-dione]	11%	> 1000 nM
O=C1Nc2ccc(-c3ccc(Cl)cc3F)cc2C(=O)N2CCN(C(=O)[C@H]3CCCN3C3CCNCC3)CC12 (stereo partly drawn) [Compound A93, 7-(4-Chloro-2-fluorophenyl)-2-((R)-1-piperidin-4-ylpyrrolidine-2-carbonyl)-1,3,4,11a-tetrahydro-2H,10H-2,4a,10-triazadibenzo[a,d]cycloheptene-5,11-dione]	17%	
CC(C)(C)CC(=O)N1CCN2C(=O)c3cc(-c4cc(Cl)ccc4F)ccc3NC(=O)C2C1 (stereo not shown) [Compound A85, 7-(5-Chloro-2-fluorophenyl)-2-(3,3-dimethylbutyryl)-1,3,4,11a-tetrahydro-2H,10H-2,4a,10-triaza-dibenzo[a,d]cycloheptene-5,11-dione]	13%	> 1000 nM
CC(C)(C)CC(=O)N1CCN2C(=O)c3cc(-c4cc(F)c(Cl)c(F)c4)ccc3NC(=O)C2C1 (stereo not shown) [Compound A79, 7-(4-Chloro-3,5-difluorophenyl)-2-(3,3-dimethyl-butyryl)-1,3,4,11a-tetrahydro-2H,10H-2,4a,10-triazadibenzo[a,d]cycloheptene-5,11-dione]	-14%	100 to 1000 nM
O=C1Nc2ccc(-c3ccc(Cl)cc3F)cc2C(=O)N2CCN(C(=O)[C@@H]3CCCN3C3CCOCC3)C[C@H]12 [Compound A120, (R)-7-(4-Chloro-2-fluorophenyl)-2-[(S)-1-(tetrahydro-pyran-4-yl)pyrrolidine-2-carbonyl]-1,3,4,11a-tetra-hydro-2H,10H-2,4a,10-triazadibenzo[a,d]-cycloheptene-5,11-dione]	8%	100 to 1000 nM
CC(C)(C)CCN1CCN2C(=O)c3cc(-c4ccc(Cl)cc4F)ccc3NC(=O)C2C1 (stereo not shown) [Compound A33]	72%	> 1000 nM
O=C1Nc2ccc(-c3ccccc3F)cc2C(=O)N2CCN(C(=O)[C@@H]3CSCN3)CC12 (stereo partly drawn) [Compound A12, 7-(2-Fluorophenyl)-2-((R)-thiazolidine-4-carbonyl)-1,3,4,11a-tetrahydro-2H,10H-2,4a,10-triaza-dibenzo[a,d]cycloheptene-5,11-dione]		> 1000 nM
Cc1ccc(-c2ccc3c(c2)C(=O)N2CCN(C(=O)CC(C)(C)C)CC2C(=O)N3)c(F)c1F (stereo not shown) [Compound A82, 7-(2,3-Difluoro-4-methylphenyl)-2-(3,3-dimethyl-butyryl)-1,3,4,11a-tetrahydro-2H,10H-2,4a,10-triazadibenzo[a,d]cycloheptene-5,11-dione]	-16%	100 to 1000 nM
Cn1cc(CCC(=O)N2CCN3C(=O)c4cc(-c5ccc(Cl)cc5F)ccc4NC(=O)C3C2)cn1 (stereo not shown) [Compound A95, 7-(4-Chloro-2-fluorophenyl)-2-[3-(1-methyl-1H-pyrazol-4-yl)propionyl]-1,3,4,11a-tetrahydro-2H,10H-2,4a,10-triazadibenzo[a,d]cycloheptene-5,11-dione]	15%	> 1000 nM
CS(=O)(=O)N1CCN2C(=O)c3cc(-c4ccccc4F)ccc3NC(=O)[C@H]2C1 [Compound B1]	75%	
CC(=O)N1CCN2C(=O)c3cc(-c4ccc(Cl)cc4F)ccc3NC(=O)[C@H]2C1 [Compound A116, (R)-2-Acetyl-7-(4-chloro-2-fluorophenyl)-1,3,4,11a-tetrahydro-2H,10H-2,4a,10-triaza-dibenzo[a,d]cycloheptene-5,11-dione]	71%	> 1000 nM
CC(C)(C)[C@@H](NC=O)C(=O)N1CCN2C(=O)c3cc(-c4ccc(Cl)cc4)ccc3NC(=O)C2C1 (stereo partly drawn) [Compound A55, N-{(R)-1-[7-(4-Chlorophenyl)-5,11-dioxo-3,4,5,10,11,11a-hexahydro-1H-2,4a,10-triaza-dibenzo[a,d]cycloheptene-2-carbonyl]-2,2-dimethylpropyl}formamide]	71%	
CC(C)[C@H](N)C(=O)N1CCN2C(=O)c3cc(-c4ccc(Cl)cc4F)ccc3NC(=O)[C@H]2C1 [Compound A63, (R)-2-((S)-2-Amino-3-methylbutyryl)-7-(4-chloro-2-fluorophenyl)-1,3,4,11a-tetrahydro-2H,10H-2,4a,10-triazadibenzo[a,d]cycloheptene-5,11-dione]	67%	> 1000 nM
CC(C)(C)[C@H](N)C(=O)N1CCN2C(=O)c3cc(-c4ccc(Cl)cc4F)ccc3NC(=O)[C@@H]2C1 [Compound A66, (S)-2-((S)-2-Amino-3,3-dimethylbutyryl)-7-(4-chloro-2-fluorophenyl)-1,3,4,11a-tetrahydro-2H,10H-2,4a,10-triazadibenzo[a,d]cycloheptene-5,11-dione]	9.5%	100 to 1000 nM
